Active and inactive are the calls of the source. The calls are words filed in the database; no cut-off is given here.
Legend:
HCT-116 [1] = assay: Cytotoxicity against human HCT116 cells after 48 hrs by sulforhodamine B assay; assay type: functional, cell-based; conditions: HCT-116, 48 h
HCT-116 [2] = assay: Ratio of 5-fluorouracil IC50 to compound IC50 for human HCT116 cells after 48 hrs by sulforhodamine B assay; assay type: functional
HT-29 [3] = assay: Cytotoxicity against human HT-29 cells after 48 hrs by sulforhodamine B assay; assay type: functional, cell-based; conditions: HT-29, 48 h
HT-29 [4] = assay: Ratio of 5-fluorouracil IC50 to compound IC50 for human HT-29 cells after 48 hrs by sulforhodamine B assay; assay type: functional
Mus musculus = assay: Reduction in hepatic glutathione levels in ip dosed mouse relative to control; assay type: functional; set-up: scale not given: the % may be the effect or the level left
HCT-116 [5] = assay: Induction of apoptosis in human HCT116 cells assessed as dead cells at 1 uM after 48 hrs by Annexin V-FITC and propidium iodide staining-based FACS flow cytometric analysis (reference value: 49.93%); assay type: functional
HT-29 [6] = assay: Cell cycle arrest in human HT-29 cells assessed as accumulation at G2/M phase at 1 uM after 48 hrs by propidium iodide staining-based FACS flow cytometric analysis; assay type: functional
HCT-116 [7] = assay: Cell cycle arrest in human HCT116 cells assessed as accumulation at G2/M phase at 1 uM after 48 hrs by propidium iodide staining-based FACS flow cytometric analysis; assay type: functional
HCT-116 [8] = assay: Cell cycle arrest in human HCT116 cells assessed as accumulation at S phase at 1 uM after 48 hrs by propidium iodide staining-based FACS flow cytometric analysis; assay type: functional
HT-29 [9] = assay: Cell cycle arrest in human HT-29 cells assessed as accumulation at S phase at 1 uM after 48 hrs by propidium iodide staining-based FACS flow cytometric analysis; assay type: functional
HCT-116 [10] = assay: Induction of apoptosis in human HCT116 cells assessed as apoptotic cells at 1 uM after 48 hrs by Annexin V-FITC and propidium iodide staining-based FACS flow cytometric analysis (reference value: 2.59%); assay type: functional
HCT-116 [11] = assay: Induction of apoptosis in human HCT116 cells assessed as dead cells at 1 uM after 24 hrs by Annexin V-FITC and propidium iodide staining-based FACS flow cytometric analysis (reference value: 38.02%); assay type: functional
HCT-116 [12] = assay: Induction of apoptosis in human HCT116 cells assessed as live cells at 1 uM after 48 hrs by Annexin V-FITC and propidium iodide staining-based FACS flow cytometric analysis (reference value: 47.40%); assay type: functional
HCT-116 [13] = assay: Induction of apoptosis in human HCT116 cells assessed as live cells at 1 uM after 24 hrs by Annexin V-FITC and propidium iodide staining-based FACS flow cytometric analysis (reference value: 59.15%); assay type: functional
HCT-116 [14] = assay: Induction of apoptosis in human HCT116 cells assessed as apoptotic cells at 1 uM after 24 hrs by Annexin V-FITC and propidium iodide staining-based FACS flow cytometric analysis (reference value: 2.82%); assay type: functional

| Compound | IC50 (HCT-116 [1]) [nM] | Ratio IC50 (HCT-116 [2]) | IC50 (HT-29 [3]) [nM] | Ratio IC50 (HT-29 [4]) | further results |
| --- | --- | --- | --- | --- | --- |
| COc1ccc(/C=C2/CN(C(=O)CC(=O)N3C/C(=C\c4ccc(OC)c(OC)c4)C(=O)/C(=C/c4ccc(OC)c(OC)c4)C3)C/C(=C\c3ccc(OC)c(OC)c3)C2=O)cc1OC | 180 | 25 | 310 | 20 |  |
| Cc1ccc(/C=C2\CN(C(=O)C(=O)N3C/C(=C\c4ccc(C)cc4)C(=O)/C(=C/c4ccc(C)cc4)C3)C/C(=C\c3ccc(C)cc3)C2=O)cc1 | 90 | 50 | 129 | 49 |  |
| O=c1[nH]cc(F)c(=O)[nH]1 [FLUOROURACIL] | 4520 | 1 | 6350 | 1 |  |
| O=C1/C(=C/c2ccccc2)CNC/C1=C\c1ccccc1 |  |  |  |  | Activity (Mus musculus): 19% |
| O=C1/C(=C\c2ccc(F)cc2)CN(C(=O)CC(=O)N2C/C(=C\c3ccc(F)cc3)C(=O)/C(=C/c3ccc(F)cc3)C2)C/C1=C\c1ccc(F)cc1 | 600 | 8 | 180 | 35 |  |
| O=C1/C(=C\c2ccc(Cl)c(Cl)c2)CN(C(=O)CC(=O)N2C/C(=C\c3ccc(Cl)c(Cl)c3)C(=O)/C(=C/c3ccc(Cl)c(Cl)c3)C2)C/C1=C\c1ccc(Cl)c(Cl)c1 | 26700 | 0.17 | 6050 | 1.1 |  |
| O=C(O)/C=C/C(=O)N1C/C(=C\c2ccccc2)C(=O)/C(=C/c2ccccc2)C1 |  |  |  |  | Activity (Mus musculus): 29% |
| O=C1/C(=C\c2ccc(O)cc2)CN(C(=O)CC(=O)N2C/C(=C\c3ccc(O)cc3)C(=O)/C(=C/c3ccc(O)cc3)C2)C/C1=C\c1ccc(O)cc1 | 720 | 6 | 460 | 14 |  |
| CN(C)c1ccc(/C=C2\CN(C(=O)C(=O)N3C/C(=C\c4ccc(N(C)C)cc4)C(=O)/C(=C/c4ccc(N(C)C)cc4)C3)C/C(=C\c3ccc(N(C)C)cc3)C2=O)cc1 | 27400 | 0.17 | 18600 | 0.34 |  |
| COc1cc(/C=C/C(=O)CC(=O)/C=C/c2ccc(O)c(OC)c2)ccc1O [CURCUMIN] | 11500 | 0.39 | 13200 | 0.48 |  |
| COc1ccc(/C=C2\CN(C(=O)C(=O)N3C/C(=C\c4ccc(OC)cc4)C(=O)/C(=C/c4ccc(OC)cc4)C3)C/C(=C\c3ccc(OC)cc3)C2=O)cc1 | 20 | 226 | 170 | 37 | Activity (HCT-116 [5]): 37.82%; Activity (HT-29 [6]): inactive; Activity (HCT-116 [7]): inactive; Activity (HCT-116 [8]): inactive; Activity (HT-29 [9]): inactive; Activity (HCT-116 [10]): 38.51%; Activity (HCT-116 [11]): 21.63%; Activity (HCT-116 [12]): 24.47%; Activity (HCT-116 [13]): 44.4%; Activity (HCT-116 [14]): 34.93% |
| COc1ccc(/C=C2/CN(C(=O)CC(=O)N3C/C(=C\c4ccc(OC)cc4)C(=O)/C(=C/c4ccc(OC)cc4)C3)C/C(=C\c3ccc(OC)cc3)C2=O)cc1 | 60 | 75 | 770 | 8 |  |
| O=C1/C(=C/c2ccc(Cl)cc2)CN(C(=O)C(=O)N2C/C(=C\c3ccc(Cl)cc3)C(=O)/C(=C/c3ccc(Cl)cc3)C2)C/C1=C\c1ccc(Cl)cc1 | 30 | 151 | 780 | 8 |  |
| O=C1/C(=C\c2ccccc2)CN(CCCN2C/C(=C\c3ccccc3)C(=O)/C(=C/c3ccccc3)C2)C/C1=C\c1ccccc1 | 680 | 7 | 2150 | 3 |  |
| O=C1/C(=C/c2ccccc2)CN(C(=O)C(=O)N2C/C(=C\c3ccccc3)C(=O)/C(=C/c3ccccc3)C2)C/C1=C\c1ccccc1 | 40 | 113 | 14 | 454 |  |
| Cc1ccc(/C=C2/CN(C(=O)CC(=O)N3C/C(=C\c4ccc(C)cc4)C(=O)/C(=C/c4ccc(C)cc4)C3)C/C(=C\c3ccc(C)cc3)C2=O)cc1 | 410 | 11 | 200 | 32 |  |
| CN(C)c1ccc(/C=C2/CN(C(=O)CC(=O)N3C/C(=C\c4ccc(N(C)C)cc4)C(=O)/C(=C/c4ccc(N(C)C)cc4)C3)C/C(=C\c3ccc(N(C)C)cc3)C2=O)cc1 | > 25000 | <1 | > 25000 | <1 |  |
| O=C1/C(=C\c2ccccc2)CN(C(=O)CC(=O)N2C/C(=C\c3ccccc3)C(=O)/C(=C/c3ccccc3)C2)C/C1=C\c1ccccc1 | 20 | 226 | 3 | 2117 |  |
| COc1cc(/C=C2\CN(C(=O)C(=O)N3C/C(=C\c4cc(OC)c(OC)c(OC)c4)C(=O)/C(=C/c4ccc(OC)c(OC)c4OC)C3)C/C(=C\c3cc(OC)c(OC)c(OC)c3)C2=O)cc(OC)c1OC | 270 | 17 | 270 | 24 |  |
| COc1ccc(/C=C2\CN(C(=O)C(=O)N3C/C(=C\c4ccc(OC)c(OC)c4)C(=O)/C(=C/c4ccc(OC)c(OC)c4)C3)C/C(=C\c3ccc(OC)c(OC)c3)C2=O)cc1OC | 30 | 151 | 568 | 11 |  |
| COc1cc(/C=C2/CN(C(=O)CC(=O)N3C/C(=C\c4cc(OC)c(OC)c(OC)c4)C(=O)/C(=C/c4cc(OC)c(OC)c(OC)c4)C3)C/C(=C\c3cc(OC)c(OC)c(OC)c3)C2=O)cc(OC)c1OC | 20 | 226 | 40 | 159 |  |
| O=C1/C(=C\c2ccc(Cl)cc2)CN(C(=O)CC(=O)N2C/C(=C\c3ccc(Cl)cc3)C(=O)/C(=C/c3ccc(Cl)cc3)C2)C/C1=C\c1ccc(Cl)cc1 | 50 | 90 | 90 | 71 |  |
| O=C1/C(=C/c2ccc(F)cc2)CN(C(=O)C(=O)N2C/C(=C\c3ccc(F)cc3)C(=O)/C(=C/c3ccc(F)cc3)C2)C/C1=C\c1ccc(F)cc1 | 20 | 226 | 30 | 212 |  |

From ChEMBL document CHEMBL2390942, “Novel 3,5-bis(arylidene)-4-piperidone dimers: potent cytotoxins against colon cancer cells” (Eur J Med Chem, 2013)
